Data from patent US20200164065A1, “TRITERPENE SAPONIN ANALOGUES” (ADJUVANCE TECHNOLOGIES, INC., priority 2017, published 2020).
Like-named read-outs stand apart in the source and are kept apart here.

Assays:
hemolysis = assay: Hemolytic assay; assay type: cell-based
Experimental: (§1) Natural and synthetic QS-21 (SQS-21 or SAPONEX®) and a variety of analogs were tested for hemolytic activity.

Stability at 37° C. = assay type: physicochemical; settings: after two weeks at 37° C.
Experimental: as §1

HA from H3N2 virus = assay: Anti-HA total IgG ELISA after immunization with HA protein; assay type: in vivo, female BL/6 mice; settings: 50 μg Compound I-4 with 9 or 3 μg/ml HA protein vs 9 μg/ml HA alone, day 21 serum
[1] = mouse, in vivo
liver = assay: Pilot pharm/tox study: histopathology of 33 tissues
[2] = Pharm/tox study with Adacel, QS-21 and TiterQuil-1055: body weight
Text: A 0.5 mcg dose of Adacel was selected for a pharmacology/toxicology (pharm/tox) study.
Mice were vaccinated SC on days 1 and 15, weighed daily, and bled and sacrificed on day 22, except for group 7 which was sacrificed on day 29.

[3] = cited from earlier work
[4] = Companion toxicity study: body mass three days after immunization; settings: 20 mcg

CC1O[C@@H](OC2C(O)[C@@H](NC(=O)CCCCCCCCCCC(=O)O)C(CO)O[C@H]2OC(=O)[C@]23CCC(C)(C)CC2C2=CCC4C5(C)CC[C@H](O)C(C)(C=O)C5CCC4(C)C2(C)CC3O)C(O)C(O)[C@H]1O[C@@H]1OC[C@@H](O)C(O)C1O (some centres unmarked) [Compound I-4]
hemolytic activity (hemolysis): much lower or undetectable hemolytic activity
degraded (Stability at 37° C.): without detectable degradation
anti-HA total IgG endpoint titer and dose sparing of HA (HA from H3N2 virus): enhances anti-HA total IgG and provides a dose sparing effect on HA concentration
weight loss (30 mcg dose with Engerix-B): No weight loss
weight loss (100 mcg dose with Engerix-B): 4%
weight loss (300 mcg dose with Engerix-B): 5%
body mass gained on average [1]: 5%
liver histopathology (hepatocellular cytoplasmic vacuolization) (liver; SC days 1 and 15, sacrificed day 22, 50 mcg TiterQuil-1055, 20 mcg QS-21, Adacel 2.5 mcg pertussis toxin): No changes at all
weight loss ([2]; mice receiving 50 mcg): No weight loss

QS-21 [reference compound]
hemolytic activity (hemolysis): highly hemolytically active
degraded (Stability at 37° C.): 20%
tolerated / maximum dose in cancer patients ([3]; cancer patients, above it local and systemic side effects): 100 to 150 µg
maximum dose for healthy patients ([3]; healthy patients): ~50 µg
highest practical tolerable dose ([3]; well (non-cancer) adult and child recipients): 25 to 50 µg
liver histopathology (hepatocellular cytoplasmic vacuolization) (liver; mouse, in vivo, sc): Mild vacuolar changes
body mass lost on average [4]: 8-10%
body weight lost ([2]; mice injected with 20 mcg): 8-9%
